Measurements taken from the NIST ThermoML archive (doi:10.1016/j.jct.2016.01.019).
± gives the expanded uncertainty stated by the source.

Legend:
[1] = refractive index (Na D-line) (dimensionless); settings: 94.64 kPa, Liquid, Standard Abbe refractometry
[2] = refractive index (other wavelength) (dimensionless); settings: 94.64 kPa, Liquid, Standard Abbe refractometry
[3] = xn = mol fraction of the nth substance listed; settings: 94.64 kPa, Liquid, Vibrating tube method
[4] = refractive index (Na D-line) (dimensionless); xn = mol fraction of the nth substance listed; settings: 94.64 kPa, Liquid, Standard Abbe refractometry

CC(O)CO (stereo not given) [1,2-propanediol]
[1]
Settings	refractive index
293.15 K	1.43219 ± 0.002
298.15 K	1.4303 ± 0.002
303.15 K	1.42921 ± 0.002
308.15 K	1.42746 ± 0.002
313.15 K	1.42566 ± 0.002
318.15 K	1.42386 ± 0.002

refractive index, [2]
Settings	Wavelength=404.7 nm	Wavelength=435.8 nm	Wavelength=486.1 nm	Wavelength=546.1 nm	Wavelength=587.6 nm	Wavelength=632.8 nm	Wavelength=644 nm	Wavelength=706.5 nm
293.15 K	1.445 ± 0.002	1.44204 ± 0.002	1.43722 ± 0.002	1.43406 ± 0.002	1.43227 ± 0.002	1.43023 ± 0.002	1.43008 ± 0.002	1.42866 ± 0.002
298.15 K	1.4429 ± 0.002	1.43967 ± 0.002	1.43566 ± 0.002	1.43245 ± 0.002	1.4305 ± 0.002	1.429 ± 0.002	1.4289 ± 0.002	1.42701 ± 0.002
303.15 K	1.44135 ± 0.002	1.43785 ± 0.002	1.43417 ± 0.002	1.43096 ± 0.002	1.42927 ± 0.002	1.42774 ± 0.002	1.42734 ± 0.002	1.42571 ± 0.002
308.15 K	1.43955 ± 0.002	1.43622 ± 0.002	1.43239 ± 0.002	1.42919 ± 0.002	1.42752 ± 0.002	1.426 ± 0.002	1.42565 ± 0.002	1.42397 ± 0.002
313.15 K	1.43771 ± 0.002	1.43437 ± 0.002	1.43055 ± 0.002	1.42738 ± 0.002	1.42572 ± 0.002	1.4242 ± 0.002	1.42386 ± 0.002	1.42219 ± 0.002
318.15 K	1.43584 ± 0.002	1.43252 ± 0.002	1.42875 ± 0.002	1.42557 ± 0.002	1.42392 ± 0.002	1.42243 ± 0.002	1.42208 ± 0.002	1.42043 ± 0.002

CC(O)CO (stereo not given) [1,2-propanediol] + OCCCO
x1 = 1
Settings	mass density, [3] [kg/m3]	refractive index, [4]
293.15 K	1036.25 ± 3.2	1.43219 ± 0.002
298.15 K	1032.61 ± 3.2	1.4303 ± 0.002
303.15 K	1028.93 ± 3.2	1.42921 ± 0.002
308.15 K	1025.19 ± 3.2	1.42746 ± 0.002
313.15 K	1021.42 ± 3.2	1.42566 ± 0.002
318.15 K	1017.65 ± 3.2	1.42386 ± 0.002

OCCCO [propan-1,3-diol]
[1]
Settings	refractive index
293.15 K	1.43932 ± 0.002
298.15 K	1.43796 ± 0.002
303.15 K	1.43665 ± 0.002
308.15 K	1.43523 ± 0.002
313.15 K	1.43385 ± 0.002
318.15 K	1.43255 ± 0.002

refractive index, [2]
Settings	Wavelength=404.7 nm	Wavelength=435.8 nm	Wavelength=486.1 nm	Wavelength=546.1 nm	Wavelength=587.6 nm	Wavelength=632.8 nm	Wavelength=644 nm	Wavelength=706.5 nm
293.15 K	1.45177 ± 0.002	1.44842 ± 0.002	1.4444 ± 0.002	1.44112 ± 0.002	1.43939 ± 0.002	1.43781 ± 0.002	1.43746 ± 0.002	1.43577 ± 0.002
298.15 K	1.45037 ± 0.002	1.447 ± 0.002	1.44301 ± 0.002	1.43975 ± 0.002	1.43802 ± 0.002	1.43645 ± 0.002	1.43611 ± 0.002	1.43441 ± 0.002
303.15 K	1.44902 ± 0.002	1.44566 ± 0.002	1.44168 ± 0.002	1.43844 ± 0.002	1.43671 ± 0.002	1.43514 ± 0.002	1.4348 ± 0.002	1.43312 ± 0.002
308.15 K	1.44755 ± 0.002	1.44419 ± 0.002	1.44027 ± 0.002	1.43699 ± 0.002	1.43529 ± 0.002	1.43375 ± 0.002	1.4334 ± 0.002	1.4317 ± 0.002
313.15 K	1.44615 ± 0.002	1.4428 ± 0.002	1.43888 ± 0.002	1.43562 ± 0.002	1.43392 ± 0.002	1.43238 ± 0.002	1.43203 ± 0.002	1.43035 ± 0.002
318.15 K	1.44474 ± 0.002	1.44141 ± 0.002	1.43754 ± 0.002	1.43429 ± 0.002	1.43261 ± 0.002	1.43109 ± 0.002	1.43075 ± 0.002	1.42908 ± 0.002

OCCCO [propan-1,3-diol] + CC(O)CO
Settings	mass density, [3] [kg/m3]	refractive index, [4]
293.15 K, x2 = 0	1052.75 ± 3.2	1.43932 ± 0.002
293.15 K, x2 = 0.0985	1051.85 ± 3.2	1.43907 ± 0.002
293.15 K, x2 = 0.2023	1050.9 ± 3.2	1.43879 ± 0.002
293.15 K, x2 = 0.3015	1049.75 ± 3.2	1.43838 ± 0.002
293.15 K, x2 = 0.3961	1048.38 ± 3.2	1.4378 ± 0.002
293.15 K, x2 = 0.5009	1046.9 ± 3.2	1.43695 ± 0.002
293.15 K, x2 = 0.5961	1045.18 ± 3.2	1.436 ± 0.002
293.15 K, x2 = 0.6965	1043.35 ± 3.2	1.43508 ± 0.002
293.15 K, x2 = 0.7974	1041.33 ± 3.2	1.4342 ± 0.002
293.15 K, x2 = 0.8985	1038.71 ± 3.2	1.4331 ± 0.002
298.15 K, x2 = 0	1049.67 ± 3.2	1.43796 ± 0.002
298.15 K, x2 = 0.0985	1048.71 ± 3.2	1.4376 ± 0.002
298.15 K, x2 = 0.2023	1047.71 ± 3.2	1.43721 ± 0.002
298.15 K, x2 = 0.3015	1046.51 ± 3.2	1.43671 ± 0.002
298.15 K, x2 = 0.3961	1045.09 ± 3.2	1.43612 ± 0.002
298.15 K, x2 = 0.5009	1043.57 ± 3.2	1.43533 ± 0.002
298.15 K, x2 = 0.5961	1041.79 ± 3.2	1.43455 ± 0.002
298.15 K, x2 = 0.6965	1039.9 ± 3.2	1.43364 ± 0.002
298.15 K, x2 = 0.7974	1037.77 ± 3.2	1.43275 ± 0.002
298.15 K, x2 = 0.8985	1035.15 ± 3.2	1.43161 ± 0.002
303.15 K, x2 = 0	1046.55 ± 3.2	1.43665 ± 0.002
303.15 K, x2 = 0.0985	1045.54 ± 3.2	1.43619 ± 0.002
303.15 K, x2 = 0.2023	1044.49 ± 3.2	1.43572 ± 0.002
303.15 K, x2 = 0.3015	1043.23 ± 3.2	1.43521 ± 0.002
303.15 K, x2 = 0.3961	1041.76 ± 3.2	1.43459 ± 0.002
303.15 K, x2 = 0.5009	1040.18 ± 3.2	1.4339 ± 0.002
303.15 K, x2 = 0.5961	1038.34 ± 3.2	1.43318 ± 0.002
303.15 K, x2 = 0.6965	1036.39 ± 3.2	1.4321 ± 0.002
303.15 K, x2 = 0.7974	1034.25 ± 3.2	1.4311 ± 0.002
303.15 K, x2 = 0.8985	1031.52 ± 3.2	1.43017 ± 0.002
308.15 K, x2 = 0	1043.45 ± 3.2	1.43523 ± 0.002
308.15 K, x2 = 0.0985	1042.36 ± 3.2	1.43478 ± 0.002
308.15 K, x2 = 0.2023	1041.24 ± 3.2	1.43424 ± 0.002
308.15 K, x2 = 0.3015	1039.93 ± 3.2	1.43377 ± 0.002
308.15 K, x2 = 0.3961	1038.41 ± 3.2	1.43324 ± 0.002
308.15 K, x2 = 0.5009	1036.78 ± 3.2	1.43241 ± 0.002
308.15 K, x2 = 0.5961	1034.87 ± 3.2	1.43161 ± 0.002
308.15 K, x2 = 0.6965	1032.85 ± 3.2	1.43076 ± 0.002
308.15 K, x2 = 0.7974	1030.65 ± 3.2	1.42967 ± 0.002
308.15 K, x2 = 0.8985	1027.85 ± 3.2	1.42858 ± 0.002
313.15 K, x2 = 0	1040.32 ± 3.2	1.43385 ± 0.002
313.15 K, x2 = 0.0985	1039.16 ± 3.2	1.4333 ± 0.002
313.15 K, x2 = 0.2023	1037.97 ± 3.2	1.43276 ± 0.002
313.15 K, x2 = 0.3015	1036.61 ± 3.2	1.43207 ± 0.002
313.15 K, x2 = 0.3961	1035.02 ± 3.2	1.43145 ± 0.002
313.15 K, x2 = 0.5009	1033.34 ± 3.2	1.43061 ± 0.002
313.15 K, x2 = 0.5961	1031.36 ± 3.2	1.43 ± 0.002
313.15 K, x2 = 0.6965	1029.27 ± 3.2	1.42906 ± 0.002
313.15 K, x2 = 0.7974	1027.04 ± 3.2	1.42818 ± 0.002
313.15 K, x2 = 0.8985	1024.18 ± 3.2	1.42699 ± 0.002
318.15 K, x2 = 0	1037.18 ± 3.2	1.43255 ± 0.002
318.15 K, x2 = 0.0985	1035.96 ± 3.2	1.43195 ± 0.002
318.15 K, x2 = 0.2023	1034.7 ± 3.2	1.43131 ± 0.002
318.15 K, x2 = 0.3015	1033.26 ± 3.2	1.43057 ± 0.002
318.15 K, x2 = 0.3961	1031.62 ± 3.2	1.42992 ± 0.002
318.15 K, x2 = 0.5009	1029.89 ± 3.2	1.42921 ± 0.002
318.15 K, x2 = 0.5961	1027.83 ± 3.2	1.42848 ± 0.002
318.15 K, x2 = 0.6965	1025.68 ± 3.2	1.42752 ± 0.002
318.15 K, x2 = 0.7974	1023.38 ± 3.2	1.42653 ± 0.002
318.15 K, x2 = 0.8985	1020.43 ± 3.2	1.42545 ± 0.002
